Consider 14 molecules from patent US20110190247A1, “CYCLOPROPYLCHROMENE DERIVATIVES AS MODULATORS OF THE ALPHA-2C RECEPTOR” (Schering Corporation, priority 2008, published 2011).

Assay [1] concerns the target T1, α2C receptor (Homo sapiens, UniProt P18825).
T1 sequence (P18825 1-462): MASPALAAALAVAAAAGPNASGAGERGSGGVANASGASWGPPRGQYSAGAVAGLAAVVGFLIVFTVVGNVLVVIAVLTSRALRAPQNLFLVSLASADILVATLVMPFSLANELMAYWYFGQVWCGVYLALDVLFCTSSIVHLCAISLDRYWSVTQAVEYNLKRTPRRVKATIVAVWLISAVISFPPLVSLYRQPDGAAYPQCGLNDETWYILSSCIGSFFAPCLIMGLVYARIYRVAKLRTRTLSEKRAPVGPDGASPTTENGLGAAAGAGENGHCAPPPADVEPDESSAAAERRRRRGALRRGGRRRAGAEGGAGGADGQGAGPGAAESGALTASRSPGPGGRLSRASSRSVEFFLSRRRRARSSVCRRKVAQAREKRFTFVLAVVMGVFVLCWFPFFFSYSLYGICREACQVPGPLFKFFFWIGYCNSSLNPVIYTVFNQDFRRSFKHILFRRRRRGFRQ
In words: binding inhibition at the α2C receptor (Ki). The settings on record: compounds classed as α2C antagonists; read-out: Ki at the α2C receptor subtype.

In assay [2] the target is T1, α2C receptor. In words: GTPγS assay, efficacy agonist activity (Emax) at α2C. It is filed as biochemical. The settings on record: for evaluated as antagonist of the α2C receptor subtype: by definition: efficacy at α2C <30% Emax (GTPγS assay) and Ki <500 nM; for evaluated as agonist of the α2C receptor subtype: by definition: efficacy at α2C 30% Emax (GTPγS assay), functionally selective if efficacy at α2A ≦35% Emax. Here is the method: Efficacy agonist activity values (Emax, GTPγS assay) for α2A and α2C were determined by following the general procedure detailed by Umland et. al (“Receptor reserve analysis of the human α2c-adrenoceptor using [^35S]GTPγS and cAMP functional assays” European Journal of Pharmacology 2001, 411, 211-221). For the purposes of the present invention, a compound is defined to be a specific or at least functionally selective agonist of the α2C receptor subtype if the compound's efficacy at the α2C receptor is […] (GTPγS assay) and its efficacy at the α2A receptor is ≦35% Emax (GTPγS assay). Additionally, for the purposes of this invention, a compound is defined to be an antagonist of the α2C receptor subtype if the compound's efficacy at the α2C receptor is <30% Emax (GTPγS assay) and the Ki at the α2C receptor subtype was <500 nM, preferentially <200 nM, and most preferentially <20 nM.

Structures are written as SMILES.

Regarding `Cc1nn(C)c(C)c1-c1ccc2c(c1)[C@@H]1[C@H](CO2)[C@H]1c1c[nH]cn1` (racemic) [(±)-2f], the Ki (usually the dissociation constant of the complex between target and ligand, obtained from inhibition or displacement) on α2C receptor [1] was below 200 nM. The “evaluated as antagonist of the α2C receptor subtype” value (“evaluated as antagonist” below) on α2C receptor [2] is on record as “antagonist”.
`CNc1ncnc(C)c1-c1ccc2c(c1)[C@@H]1[C@H](CO2)[C@H]1c1c[nH]cn1` (racemic) [(±)-8]: the “evaluated as agonist of the α2C receptor subtype” value (from here on “evaluated as agonist”) on α2C receptor [2] was “active or functionally selective agonists”.
Still for that read-out and setting: as for `CCN(C(=O)OC)c1ccc2c(c1)[C@@H]1[C@H](CO2)[C@H]1c1c[nH]cn1` (racemic) [(±)-4], the entry is “active or functionally selective agonists”.
The same measure, in the same setting: as for `CNC(=O)N(C)c1ccc2c(c1)[C@@H]1[C@H](CO2)[C@H]1c1c[nH]cn1` (racemic) [(±)-101], the entry is “active or functionally selective agonists”; as for `COC(=O)N(C)c1ccc2c(c1)[C@@H]1[C@H](CO2)[C@H]1c1c[nH]cn1` (racemic) [(±)-102], “active or functionally selective agonists”.
As to `CNc1ncncc1-c1ccc2c(c1)[C@@H]1[C@H](CO2)[C@H]1c1c[nH]cn1` (racemic) [(±)-7], the Ki at α2C receptor [1] was below 200 nM. Besides, at α2C receptor [2], the “evaluated as antagonist” value was “antagonist”.
For `c1ncc(-c2ccc3c(c2)[C@@H]2[C@H](CO3)[C@H]2c2c[nH]cn2)cn1` (racemic) [(±)-2] the same measures were below 200 nM and “antagonist”.
Turning to `COCC(=O)N(C)c1ccc2c(c1)[C@@H]1[C@H](CO2)[C@H]1c1c[nH]cn1` (racemic) [(±)-5], the “evaluated as agonist” value at α2C receptor [2] is “active or functionally selective agonists”.
As for `CCN(C(=O)COC)c1ccc2c(c1)[C@@H]1[C@H](CO2)[C@H]1c1c[nH]cn1` (racemic) [(±)-100], the Ki on α2C receptor [1] was below 200 nM. The “evaluated as antagonist” value at α2C receptor [2] was “antagonist”.
The like results for `Cc1noc(C)c1-c1ccc2c(c1)[C@@H]1[C@H](CO2)[C@H]1c1c[nH]cn1` (racemic) [(±)-2d] were, in that order, below 200 nM and “antagonist”.
For `CCN(C(=O)NC)c1ccc2c(c1)[C@@H]1[C@H](CO2)[C@H]1c1c[nH]cn1` (racemic) [(±)-3], the “evaluated as agonist” value at α2C receptor [2] is “active or functionally selective agonists”.
On to `c1nc([C@@H]2[C@H]3COc4ccc(-c5cn[nH]c5)cc4[C@H]32)c[nH]1` (racemic) [(±)-2e], for which the inhibition constant (Ki) on α2C receptor [1] is below 200 nM. Also, the “evaluated as antagonist” value on α2C receptor [2] is listed as “antagonist”.
For the molecule `Cc1n[nH]c(C)c1-c1ccc2c(c1)[C@@H]1[C@H](CO2)[C@H]1c1c[nH]cn1` (racemic) [(±)-2C], at α2C receptor [2], the “evaluated as agonist” value is reported as “active or functionally selective agonists”.
Regarding `Cn1nccc1-c1ccc2c(c1)[C@@H]1[C@H](CO2)[C@H]1c1c[nH]cn1` (racemic) [(±)-2A], the “evaluated as agonist” value on α2C receptor [2] is listed as “active or functionally selective agonists”.
